Measurements from patent US20100331349A1, “Use of gamma-aminobutyric acid to mask or reduce an unpleasant flavour impression and preparations containing gamma-aminobutyric” (Symrise GmbH & Co. KG, priority 2004, published 2010).

Experiments:
[1] = WO 00/21390; cited from earlier work
[2] = Masking or reduction of unpleasant (bitter) flavour impression in preparations, rated by a group of experts; details: against caffeine, quinine, naringin, potassium chloride, magnesium sulfate, beta-lactam antibiotics
Experimental: (§1) To quantify the reduction in the bitter impression with the use of γ-aminobutyric acid, the bitterness of a 500 ppm caffeine solution (comparative solution; not according to the invention) and of four samples according to the invention containing 500 ppm of caffeine and differing amounts of γ-aminobutyric acid was determined by a group of experts (rating 0 [not bitter] to 10 [extremely bitter]).
as §1, with “impression,” for “impression with the use of γ-aminobutyric acid,”, “12.5” for “500”, “quinine hydrochloride” for “caffeine”, “eight” for “four”, “5” for “10”
To quantify the reduction in the bitter impression, the bitterness of (a) a 500 ppm caffeine solution (basic solution), (b) a sample containing 500 ppm of caffeine, 100 ppm of homoeriodictyol sodium salt and 20 ppm of γ-aminobutyric acid, and (c) a sample containing 500 ppm of caffeine and 20 ppm of γ-aminobutyric acid was determined by a group of experts (rating 1 [not bitter] to 10 [extremely bitter]). […]

Compound	concentration needed as bitterness-masking agent [1]	concentration in preparations at which the unpleasant, in particular bitter, flavour impression is reduced or completely suppressed [2]
polyglutamic acid	around 1 wt. %	–
NCCCC(=O)O [γ-aminobutyric acid]	–	less than 0.1 wt. %
